Data reported in patent publication US9403813B2, “Azetidine amide derivatives as orexin receptor antagonists” (ACTELION PHARMACEUTICALS LTD, priority 2013, dated 2016).

Legend:
human orexin-1 receptor = human orexin-1 receptor (Homo sapiens (Human), UniProt O43613); assay: Intracellular calcium measurements (FLIPR), antagonism of orexin-A response; type: cell-based; details: CHO cells expressing human orexin-1 receptor, 3 nM orexin-A, geometric mean if determined several times, read-out: IC50 OX1
Sequence of human orexin-1 receptor (O43613 whole entry): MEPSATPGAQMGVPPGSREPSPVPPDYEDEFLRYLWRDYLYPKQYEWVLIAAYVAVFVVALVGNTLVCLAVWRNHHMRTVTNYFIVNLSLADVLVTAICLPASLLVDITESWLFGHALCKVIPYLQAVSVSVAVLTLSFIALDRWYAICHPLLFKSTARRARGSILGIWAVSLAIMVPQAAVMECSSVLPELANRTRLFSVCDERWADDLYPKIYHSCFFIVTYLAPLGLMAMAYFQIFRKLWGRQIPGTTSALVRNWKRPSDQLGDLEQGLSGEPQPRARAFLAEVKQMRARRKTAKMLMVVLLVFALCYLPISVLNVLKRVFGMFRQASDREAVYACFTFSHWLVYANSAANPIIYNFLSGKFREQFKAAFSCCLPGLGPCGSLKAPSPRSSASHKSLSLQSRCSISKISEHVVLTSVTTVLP
How it was run: (§1)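 CHO cells expressing human OX1 or OX2 receptor, loaded with fluo-4 AM plus probenecid, preincubated with antagonist 120 min before 3 nM orexin-A challenge. FLIPR calcium peak heights compared with agonist-plus-vehicle response. IC50 possibly normalized to on-plate reference; geometric mean of repeat determinations.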

human orexin-2 receptor = human orexin-2 receptor (Homo sapiens (Human), UniProt O43614); assay: as above; type: cell-based; details: CHO cells expressing human orexin-2 receptor, 3 nM orexin-A, geometric mean if determined several times, read-out: IC50 OX2
Sequence of human orexin-2 receptor (O43614 whole entry): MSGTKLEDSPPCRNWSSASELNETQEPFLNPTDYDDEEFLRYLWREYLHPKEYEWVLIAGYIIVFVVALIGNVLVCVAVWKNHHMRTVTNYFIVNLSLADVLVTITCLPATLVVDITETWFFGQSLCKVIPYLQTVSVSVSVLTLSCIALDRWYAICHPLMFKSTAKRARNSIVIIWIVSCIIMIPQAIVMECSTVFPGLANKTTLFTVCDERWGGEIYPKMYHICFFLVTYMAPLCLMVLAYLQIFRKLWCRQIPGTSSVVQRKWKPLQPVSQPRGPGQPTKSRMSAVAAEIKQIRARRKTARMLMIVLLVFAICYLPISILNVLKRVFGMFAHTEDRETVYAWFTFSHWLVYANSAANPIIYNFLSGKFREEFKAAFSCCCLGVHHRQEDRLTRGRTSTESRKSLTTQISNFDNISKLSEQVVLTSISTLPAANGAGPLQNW
How it was run: as §1

IC50 (human orexin-1 receptor) | IC50 (human orexin-2 receptor) | Structure (SMILES)
0.037 µM | 0.001 µM | CCOc1ncccc1-c1nc([C@@H]2CCN2C(=O)c2cc(OC)c(C)cc2-n2nccn2)no1 [Example 92, {(S)-2-[5-(2-Ethoxy-pyridin-3-yl)-[1,2,4]oxadiazol-3-yl]-azetidin-1-yl}-(5-methoxy-4-methyl-2-[1,2,3]triazol-2-yl-phenyl)-methanone]
0.655 µM | 0.008 µM | Cc1ccc(-n2nccn2)c(C(=O)N2CC[C@H]2c2noc(-c3cccc(F)c3C)n2)c1 [Example 93, {(S)-2-[5-(3-Fluoro-2-methyl-phenyl)-[1,2,4]oxadiazol-3-yl]-azetidin-1-yl}-(5-methyl-2-[1,2,3]triazol-2-yl-phenyl)-methanone]
0.326 µM | 0.011 µM | COc1cc(C(=O)N2CC[C@H]2c2noc(-c3ccccc3OC(F)(F)F)n2)c(-n2nccn2)cc1Cl [Example 94, (4-Chloro-5-methoxy-2-[1,2,3]triazol-2-yl-phenyl)-{(S)-2-[5-(2-trifluoromethoxy-phenyl)-[1,2,4]oxadiazol-3-yl]-azetidin-1-yl}-methanone]
0.06 µM | 0.006 µM | Cc1cc(-n2nccn2)c(C(=O)N2CC[C@H]2c2noc(-c3ccccc3OC(F)(F)F)n2)cc1Cl [Example 95, (5-Chloro-4-methyl-2-[1,2,3]triazol-2-yl-phenyl)-{(S)-2-[5-(2-trifluoromethoxy-phenyl)-[1,2,4]oxadiazol-3-yl]-azetidin-1-yl}-methanone]
0.306 µM | 0.003 µM | COc1cc(C(=O)N2CC[C@H]2c2noc(-c3cccc(F)c3C)n2)c(-n2nccn2)cc1Cl [Example 96, (4-Chloro-5-methoxy-2-[1,2,3]triazol-2-yl-phenyl)-{(S)-2-[5-(3-fluoro-2-methyl-phenyl)-[1,2,4]oxadiazol-3-yl]-azetidin-1-yl}-methanone]
0.257 µM | 0.01 µM | CCOc1ncccc1-c1nc([C@@H]2CCN2C(=O)c2ccc(C)cc2-n2nccn2)no1 [Example 97, {(S)-2-[5-(2-Ethoxy-pyridin-3-yl)-[1,2,4]oxadiazol-3-yl]-azetidin-1-yl}-(4-methyl-2-[1,2,3]triazol-2-yl-phenyl)-methanone]
0.083 µM | 0.001 µM | CCOc1ncccc1-c1nc([C@@H]2CCN2C(=O)c2cc(OC)c(Cl)cc2-n2nccn2)no1 [Example 98, (4-Chloro-5-methoxy-2-[1,2,3]triazol-2-yl-phenyl)-{(S)-2-[5-(2-ethoxy-pyridin-3-yl)-[1,2,4]oxadiazol-3-yl]-azetidin-1-yl}-methanone]
0.02 µM | 0.001 µM | CCOc1ncccc1-c1nc([C@@H]2CCN2C(=O)c2cc(Cl)c(C)cc2-n2nccn2)no1 [Example 99, (5-Chloro-4-methyl-2-[1,2,3]triazol-2-yl-phenyl)-{(S)-2-[5-(2-ethoxy-pyridin-3-yl)-[1,2,4]oxadiazol-3-yl]-azetidin-1-yl}-methanone]
0.82 µM | 0.034 µM | Cc1c(Cl)cccc1-c1nc([C@@H]2CCN2C(=O)c2ccccc2-n2nccn2)no1 [Example 100, {(S)-2-[5-(3-Chloro-2-methyl-phenyl)-[1,2,4]oxadiazol-3-yl]-azetidin-1-yl}-(2-[1,2,3]triazol-2-yl-phenyl)-methanone]
0.088 µM | 0.008 µM | Cc1ccc(-n2nccn2)c(C(=O)N2CC[C@H]2c2noc(-c3cccc(Cl)c3C)n2)c1 [Example 101, {(S)-2-[5-(3-Chloro-2-methyl-phenyl)-[1,2,4]oxadiazol-3-yl]-azetidin-1-yl}-(5-methyl-2-[1,2,3]triazol-2-yl-phenyl)-methanone]
0.041 µM | 0.002 µM | Cc1cc(C(=O)N2CC[C@H]2c2noc(-c3cccc(Cl)c3C)n2)c(-n2nccn2)cc1C [Example 102, {(S)-2-[5-(3-Chloro-2-methyl-phenyl)-[1,2,4]oxadiazol-3-yl]-azetidin-1-yl}-(4,5-dimethyl-2-[1,2,3]triazol-2-yl-phenyl)-methanone]
0.059 µM | 0.002 µM | COc1cc(C(=O)N2CC[C@H]2c2noc(-c3cccc(Cl)c3C)n2)c(-n2nccn2)cc1C [Example 103, {(S)-2-[5-(3-Chloro-2-methyl-phenyl)-[1,2,4]oxadiazol-3-yl]-azetidin-1-yl}-(5-methoxy-4-methyl-2-[1,2,3]triazol-2-yl-phenyl)-methanone]
0.181 µM | 0.002 µM | COc1cc(C(=O)N2CC[C@H]2c2noc(-c3cccc(Cl)c3C)n2)c(-n2nccn2)cc1Cl [Example 104, (4-Chloro-5-methoxy-2-[1,2,3]triazol-2-yl-phenyl)-{(S)-2-[5-(3-chloro-2-methyl-phenyl)-[1,2,4]oxadiazol-3-yl]-azetidin-1-yl}-methanone]
0.122 µM | 0.005 µM | Cc1cc(-n2nccn2)c(C(=O)N2CC[C@H]2c2noc(-c3cccc(Cl)c3C)n2)cc1Cl [Example 105, {(S)-2-[5-(3-Chloro-2-methyl-phenyl)-[1,2,4]oxadiazol-3-yl]-azetidin-1-yl}-(5-chloro-4-methyl-2-[1,2,3]triazol-2-yl-phenyl)-methanone]
0.33 µM | 0.009 µM | Cc1ccc(C(=O)N2CC[C@H]2c2noc(-c3cccc(Cl)c3C)n2)c(-n2nccn2)c1 [Example 106, {(S)-2-[5-(3-Chloro-2-methyl-phenyl)-[1,2,4]oxadiazol-3-yl]-azetidin-1-yl}-(4-methyl-2-[1,2,3]triazol-2-yl-phenyl)-methanone]
0.317 µM | 0.013 µM | Cc1c(Cl)cccc1-c1nc([C@@H]2CCN2C(=O)c2ccc(Cl)cc2-n2nccn2)no1 [Example 107, {(S)-2-[5-(3-Chloro-2-methyl-phenyl)-[1,2,4]oxadiazol-3-yl]-azetidin-1-yl}-(4-chloro-2-[1,2,3]triazol-2-yl-phenyl)-methanone]
0.759 µM | 0.028 µM | Cc1c(Cl)cccc1-c1nc([C@@H]2CCN2C(=O)c2ccc(C(F)(F)F)cc2-n2nccn2)no1 [Example 108, {(S)-2-[5-(3-Chloro-2-methyl-phenyl)-[1,2,4]oxadiazol-3-yl]-azetidin-1-yl}-(2-[1,2,3]triazol-2-yl-4-trifluoromethyl-phenyl)-methanone]
0.132 µM | 0.003 µM | COc1c(Cl)cccc1-c1nc([C@@H]2CCN2C(=O)c2cc(C)ccc2-n2nccn2)no1 [Example 109, {(S)-2-[5-(3-Chloro-2-methoxy-phenyl)-[1,2,4]oxadiazol-3-yl]-azetidin-1-yl}-(5-methyl-2-[1,2,3]triazol-2-yl-phenyl)-methanone]
0.046 µM | 0.001 µM | COc1c(Cl)cccc1-c1nc([C@@H]2CCN2C(=O)c2cc(C)c(C)cc2-n2nccn2)no1 [Example 110, {(S)-2-[5-(3-Chloro-2-methoxy-phenyl)-[1,2,4]oxadiazol-3-yl]-azetidin-1-yl}-(4,5-dimethyl-2-[1,2,3]triazol-2-yl-phenyl)-methanone]
0.082 µM | 0.0007 µM | COc1cc(C(=O)N2CC[C@H]2c2noc(-c3cccc(Cl)c3OC)n2)c(-n2nccn2)cc1C [Example 111, {(S)-2-[5-(3-Chloro-2-methoxy-phenyl)-[1,2,4]oxadiazol-3-yl]-azetidin-1-yl}-(5-methoxy-4-methyl-2-[1,2,3]triazol-2-yl-phenyl)-methanone]
0.07 µM | 0.001 µM | COc1cc(C(=O)N2CC[C@H]2c2noc(-c3cccc(Cl)c3OC)n2)c(-n2nccn2)cc1Cl [Example 112, {(S)-2-[5-(3-Chloro-2-methoxy-phenyl)-[1,2,4]oxadiazol-3-yl]-azetidin-1-yl}-(4-chloro-5-methoxy-2-[1,2,3]triazol-2-yl-phenyl)-methanone]
0.051 µM | 0.001 µM | COc1c(Cl)cccc1-c1nc([C@@H]2CCN2C(=O)c2cc(Cl)c(C)cc2-n2nccn2)no1 [Example 113, {(S)-2-[5-(3-Chloro-2-methoxy-phenyl)-[1,2,4]oxadiazol-3-yl]-azetidin-1-yl}-(5-chloro-4-methyl-2-[1,2,3]triazol-2-yl-phenyl)-methanone]
0.026 µM | 0.002 µM | Cc1ccc(-c2ccccc2)c(C(=O)N2CC[C@H]2c2noc(-c3cccc(Cl)c3C)n2)c1 [Example 114, {(S)-2-[5-(3-Chloro-2-methyl-phenyl)-[1,2,4]oxadiazol-3-yl]-azetidin-1-yl}-(4-methyl-biphenyl-2-yl)-methanone]
0.984 µM | 0.122 µM | Cc1c(Cl)cccc1-c1nc([C@@H]2CCN2C(=O)c2cc(F)ccc2-c2ncccn2)no1 [Example 115, {(S)-2-[5-(3-Chloro-2-methyl-phenyl)-[1,2,4]oxadiazol-3-yl]-azetidin-1-yl}-(5-fluoro-2-pyrimidin-2-yl-phenyl)-methanone]
0.561 µM | 0.005 µM | COc1cc(C(=O)N2CC[C@H]2c2noc(-c3cccc(Cl)c3C)n2)c(-c2ncccn2)cc1C [Example 116, {(S)-2-[5-(3-Chloro-2-methyl-phenyl)-[1,2,4]oxadiazol-3-yl]-azetidin-1-yl}-(5-methoxy-4-methyl-2-pyrimidin-2-yl-phenyl)-methanone]
0.606 µM | 0.032 µM | Cc1ccc(-c2ncccn2)c(C(=O)N2CC[C@H]2c2noc(-c3cccc(Cl)c3C)n2)c1 [Example 117, {(S)-2-[5-(3-Chloro-2-methyl-phenyl)-[1,2,4]oxadiazol-3-yl]-azetidin-1-yl}-(5-methyl-2-pyrimidin-2-yl-phenyl)-methanone]
0.081 µM | 0.004 µM | COc1c(Cl)cccc1-c1nc([C@@H]2CCN2C(=O)c2ccc(C)cc2-n2nccn2)no1 [Example 118, {(S)-2-[5-(3-Chloro-2-methoxy-phenyl)-[1,2,4]oxadiazol-3-yl]-azetidin-1-yl}-(4-methyl-2-[1,2,3]triazol-2-yl-phenyl)-methanone]
